In the assay the test system is Danio rerio embryo. Kind of assay: benchmark concentration, MalformedAny+Mort@120 (percent of embryos dead or malformed at 120 hpf); higher = less toxic. Conditions: exposure window: 4-6 to 120 hpf. The procedure:
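Single zebrafish embryos in 96-well plates (200 µL; 0.5% DMSO vehicle) were exposed from about 4–6 hpf to 120 hpf at 7 or more concentrations up to 100 µM or the solubility limit, one plate per replicate. Each lab used its in-house protocol: Lab A used AB embryos in E3 with chorion on and daily renewal; Lab B used Tropical 5D embryos in E2, dechorionated, static; Lab C used AB embryos in E3 with chorion on, static. The percentage of dead or malformed embryos at 120 hpf was fitted per plate (positive control: per week) by bootstrap Curvep to give a benchmark concentration (BMC); inactive substances are set to the highest tested concentration, BMCs at the lowest tested concentration are floors.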

[1] abbreviates: laboratory protocol: Lab A: static renewal, chorionated (SR-C), AB strain, E3.
The mark [2] stands for this setting: laboratory protocol: Lab B: static, dechorionated (S-DC), Tropical 5D strain, E2.
Setting [3] is: laboratory protocol: Lab C: static, chorionated (S-C), AB strain, E3.

The record followed here is the supplement of paper PMC10820928.

± gives the standard deviation of the averaged measurements.

For `C[Si](Cn1cncn1)(c1ccc(F)cc1)c1ccc(F)cc1` [Flusilazole], the benchmark concentration by setting is: under setting [1], 1.41 ± 0.027 µM; under setting [2], 6.04 ± 1.4 µM; under setting [3], 11.6 ± 5.1 µM.
The matching figures for `O=P(OC(CCl)CCl)(OC(CCl)CCl)OC(CCl)CCl` [Tris(1,3-dichloro-2-propyl) phosphate]: 2.2 ± 0.24 µM, 6.94 ± 2.6 µM and 15.9 ± 3.1 µM.
The matching figures for `Cl[C@H]1[C@H](Cl)[C@@H](Cl)[C@@H](Cl)[C@H](Cl)[C@H]1Cl` [Lindane]: 1.24 ± 0.5 µM, 35.6 ± 6.7 µM and 9.25 ± 4.2 µM.
As to `CN(C)C(=S)[S-].CN(C)C(=S)[S-].[Zn+2]` [Ziram], the benchmark concentration under setting [2] was less than 1 µM.
Consider `CCOP(=O)(OCC)Oc1nc(Cl)c(Cl)cc1Cl` [Chlorpyrifos oxon], for which the benchmark concentration was determined as 1.69 ± 0.43 µM under setting [2] and 0.2 ± 0.14 µM under setting [3].
Molecule `c1cc2ccc3cccc4ccc(c1)c2c34` [Pyrene] showed a benchmark concentration under setting [1] of 3.81 ± 1.2 µM and a benchmark concentration under setting [2] of 50.5 ± 25 µM.
For `CCCc1cc(=O)[nH]c(=S)[nH]1` [6-Propyl-2-thiouracil], the benchmark concentration was more than 100 µM under setting [1] and more than 100 µM under setting [2].
For `CC/C(=C(/CC)c1ccc(O)cc1)c1ccc(O)cc1` [Diethylstilbestrol], the benchmark concentration reads like this: under setting [1], 0.547 ± 0.03 µM; under setting [2], 3.07 ± 0.69 µM; under setting [3], 3.37 ± 1.3 µM.
In the case of `NC(=O)NO` [Hydroxyurea], the benchmark concentration was more than 100 µM under setting [1] and more than 100 µM under setting [2].
In the case of `Nc1ccc(Cl)c(Cl)c1` [3,4-Dichloroaniline], the benchmark concentration is 7.8 ± 0.11 µM under setting [1], less than 2 µM under setting [2] and 14 ± 4.4 µM under setting [3].
In the same order, the values of `Oc1c(Cl)c(Cl)c(Cl)c(Cl)c1Cl` [Pentachlorophenol] are 0.257 ± 0.15 µM, less than 1 µM and 0.818 ± 0.49 µM.
`O=C1CCC(N2C(=O)c3ccccc3C2=O)C(=O)N1` (stereo not drawn) [Thalidomide]: the benchmark concentration under setting [1] is more than 100 µM and the benchmark concentration under setting [2] is more than 100 µM.
With `CON(C)C(=O)Nc1ccc(Cl)c(Cl)c1` [Linuron], the benchmark concentration reads like this: under setting [1], 4.78 ± 0.21 µM; under setting [2], 19.5 ± 9.7 µM; under setting [3], 29.7 ± 14 µM.
In the case of `CC(=O)Oc1ccccc1C(=O)O` [Aspirin], the benchmark concentration by setting is: under setting [2], more than 100 µM; under setting [3], 24.6 ± 18 µM.
In the case of `CCOP(=S)(OCC)SCSCC` [Phorate], the benchmark concentration under setting [1] was 2.53 ± 1.7 µM and the benchmark concentration under setting [2] is more than 100 µM.
`CCC[CH2][Sn]([CH2]CCC)([CH2]CCC)[O][Sn]([CH2]CCC)([CH2]CCC)[CH2]CCC` [Bis(tributyltin)oxide] had a benchmark concentration under setting [1] of 0.0463 ± 0.0031 µM and a benchmark concentration under setting [3] of 1.08 ± 0.52 µM.
On to `CCOP(=S)(OCC)Oc1nc(Cl)c(Cl)cc1Cl` [Chlorpyrifos], for which the benchmark concentration under setting [1] was determined as 0.879 ± 0.45 µM, the benchmark concentration under setting [2] amounted to 63.7 ± 35 µM and the benchmark concentration under setting [3] amounted to 45.7 µM.
`CCCC(CCC)C(=O)O` [Valproic acid]: the benchmark concentration under setting [3] came out at 6 ± 7.4 µM.
In the case of `CC(COc1ccc(Oc2ccccc2)cc1)Oc1ccccn1` (stereo not drawn) [Pyriproxyfen], the benchmark concentration was 4.41 ± 1.7 µM under setting [1] and 65.4 ± 16 µM under setting [2].
For `CC=O` [Acetaldehyde], the benchmark concentration by setting is: under setting [1], more than 100 µM; under setting [2], more than 100 µM; under setting [3], more than 100 µM.
In the case of `CC(C)(C)[C@H](O)[C@H](Cc1ccc(Cl)cc1)n1cncn1` (racemic) [Paclobutrazol], the benchmark concentration runs as follows: under setting [1], 0.339 ± 0.16 µM; under setting [3], 23.1 ± 21 µM.
`c1ccc2c(c1)ccc1cc3c(ccc4ccccc43)cc12` [Dibenz(a,h)anthracene]: the benchmark concentration by setting is: under setting [2], more than 64 µM; under setting [3], more than 100 µM.
`Oc1cc(Cl)ccc1Oc1ccc(Cl)cc1Cl` [Triclosan]: the benchmark concentration was found to be 1.2 ± 0.34 µM under setting [1], 3.62 ± 0.7 µM under setting [2] and 7.86 ± 5.5 µM under setting [3].
`CC(C)(c1cc(Br)c(O)c(Br)c1)c1cc(Br)c(O)c(Br)c1` [3,3',5,5'-Tetrabromobisphenol A]: the benchmark concentration by setting is: under setting [1], 1.39 µM; under setting [2], 2.97 ± 0.81 µM; under setting [3], 4.25 ± 0.23 µM.
In the same order, the values of `Oc1cccc(O)c1` [Resorcinol] are more than 100 µM, more than 100 µM and more than 100 µM.
As to `CC(C)(c1ccc(O)cc1)c1ccc(O)cc1` [Bisphenol A], the benchmark concentration under setting [1] amounted to 13 ± 2.4 µM, the benchmark concentration under setting [2] was determined as 38.5 ± 2.8 µM and the benchmark concentration under setting [3] amounted to 21.8 ± 12 µM.
In the same order, the values of `CCCCOC(=O)c1ccccc1C(=O)OCCCC` [Dibutyl phthalate] are 1.28 ± 0.24 µM, 4.16 ± 0.31 µM and 38.2 ± 13 µM.
The molecule `CC[C@H](C)[C@H]1O[C@]2(C=C[C@@H]1C)C[C@@H]1C[C@@H](C/C=C(\C)[C@@H](O[C@H]3C[C@H](OC)[C@@H](O[C@H]4C[C@H](OC)[C@@H](O)[C@H](C)O4)[C@H](C)O3)[C@@H](C)/C=C/C=C3\CO[C@@H]4[C@H](O)C(C)=C[C@@H](C(=O)O1)[C@]34O)O2.CO[C@H]1C[C@H](O[C@H]2[C@H](C)O[C@@H](O[C@@H]3/C(C)=C/C[C@@H]4C[C@@H](C[C@]5(C=C[C@H](C)[C@@H](C(C)C)O5)O4)OC(=O)[C@@H]4C=C(C)[C@@H](O)[C@H]5OC/C(=C\C=C\[C@@H]3C)[C@]54O)C[C@@H]2OC)O[C@@H](C)[C@@H]1O` [Abamectin] gave a benchmark concentration under setting [3] of 0.436 ± 0.24 µM.
Molecule `CC(C)(C)C(=O)C(Oc1ccc(Cl)cc1)n1cncn1` (stereo not drawn) [Triadimefon] yielded a benchmark concentration under setting [1] of 1.51 ± 0.11 µM, a benchmark concentration under setting [2] of 7.61 ± 4.6 µM and a benchmark concentration under setting [3] of 6.93 ± 6.8 µM.
Consider `Cn1c(=O)c2c(ncn2C)n(C)c1=O` [Caffeine], for which the benchmark concentration under setting [1] was more than 100 µM and the benchmark concentration under setting [2] was more than 100 µM.
Take `CNC(=O)O/N=C/C(C)(C)SC` [Aldicarb]: the benchmark concentration was found to be 0.926 ± 0.4 µM under setting [1], 2.27 ± 0.83 µM under setting [2] and 1.94 ± 0.48 µM under setting [3].
Take `CCCC(CCC)C(=O)O` [Sodium valproate]: the benchmark concentration is more than 100 µM under setting [2] and 4.12 µM under setting [3].
In turn, `CCCCOC(=O)C(C)Oc1ccc(Oc2ccc(C(F)(F)F)cn2)cc1` (stereo not drawn) [Fluazifop-butyl] yielded a benchmark concentration under setting [1] of 2.6 ± 1.5 µM, a benchmark concentration under setting [2] of 3.5 ± 1 µM and a benchmark concentration under setting [3] of 53.8 ± 10 µM.
In the same order, the values of `CCNc1nc(Cl)nc(NC(C)C)n1` [Atrazine] are 49 ± 5.9 µM, more than 100 µM and more than 100 µM.
Take `CC(C)c1cccc(C(C)C)c1O` [Propofol]: the benchmark concentration was 0.502 ± 0.076 µM under setting [1] and more than 100 µM under setting [2].
For the molecule `O=P(Oc1ccccc1)(Oc1ccccc1)Oc1ccccc1` [Triphenyl phosphate], the benchmark concentration is, setting by setting: under setting [1], 0.879 ± 0.45 µM; under setting [2], 4.35 ± 0.61 µM; under setting [3], 30 ± 15 µM.
The matching figures for `CC(C)NC(=O)N1CC(=O)N(c2cc(Cl)cc(Cl)c2)C1=O` [Iprodione]: 11.7 ± 3.8 µM, 62.3 ± 23 µM and 35.7 ± 18 µM.
For `C=C(C)[C@H]1Cc2c(ccc3c2O[C@@H]2COc4cc(OC)c(OC)cc4[C@@H]2C3=O)O1` [Rotenone], the benchmark concentration runs as follows: under setting [2], less than 1 µM; under setting [3], 0.194 ± 0.15 µM.
